Patent US12421237B2, “Pesticidally active heterocyclic derivatives with sulfur containing substituents” (SYNGENTA PARTICIPATIONS AG, priority 2016, dated 2025)

Legend:
Format in all cases: in vivo
[1] = system: Plutella xylostella (Diamond Back Moth); test: Plutella xylostella (Diamond Back Moth) artificial diet test; details: 120 h, application rate of 200 ppm, L2 larvae, 5 days after infestation, read-out: effect in at least one of the two categories (mortality or growth inhibition)
Experimental: 24-well microtiter plates with artificial diet were treated with aqueous test solutions prepared from 10,000 ppm DMSO stock solutions by pipetting. After drying, the plates were infested with L2 larvae (10 to 15 per well). The samples were assessed for mortality and growth inhibition in comparison to untreated samples 5 days after infestation.

[2] = system: Euschistus heros (Neotropical Brown Stink Bug); test: Euschistus heros (Neotropical Brown Stink Bug) soybean leaf spray test; details: 120 h, application rate of 200 ppm, soybean leaves sprayed, N2 nymphs, 5 days after infestation, read-out: effect in at least one of the two categories (mortality or growth inhibition)
Experimental: Soybean leaves on agar in 24-well microtiter plates were sprayed with aqueous test solutions prepared from 10,000 ppm DMSO stock solutions. After drying the leaves were infested with N2 nymphs. The samples were assessed for mortality and growth inhibition in comparison to untreated samples 5 days after infestation.

[3] = system: Myzus persicae (Green Peach Aphid); test: Myzus persicae (Green Peach Aphid): Feeding/Contact Activity; details: foliar, 144 h, application rate of 200 ppm, sunflower leaf discs sprayed, aphid population of mixed ages, 6 days after infestation
Experimental: Sunflower leaf discs were placed onto agar in a 24-well microtiter plate and sprayed with aqueous test solutions prepared from 10,000 ppm DMSO stock solutions. After drying, the leaf discs were infested with an aphid population of mixed ages. The samples were assessed for mortality 6 days after infestation.

[4] = system: Myzus persicae (Green Peach Aphid); test: Myzus persicae (Green Peach Aphid). Systemic Activity; details: 144 h, test rate of 24 ppm, roots of infested pea seedlings in test solution, 6 days
Experimental: Roots of pea seedlings infested with an aphid population of mixed ages were placed directly into aqueous test solutions prepared from 10,000 DMSO stock solutions. The samples were assessed for mortality 6 days after placing seedlings into test solutions.

[5] = system: Diabrotica Balteata (Corn Root Worm); test: Diabrotica balteata (Corn Root Worm) maize sprout spray test; details: 96 h, application rate of 200 ppm, maize sprouts sprayed, L2 larvae, 4 days after infestation, read-out: effect in at least one of the two categories (mortality or growth inhibition)
Experimental: Maize sprouts placed onto an agar layer in 24-well microtiter plates were treated with aqueous test solutions prepared from 10,000 ppm DMSO stock solutions by spraying. After drying, the plates were infested with L2 larvae (6 to 10 per well). The samples were assessed for mortality and growth inhibition in comparison to untreated samples 4 days after infestation.

[6] = system: Frankliniella occidentalis (Western Flower Thrips); test: Frankliniella occidentalis (Western Flower Thrips): Feeding/Contact Activity; details: foliar, 168 h, application rate of 200 ppm, sunflower leaf discs sprayed, population of mixed ages, 7 days after infestation
Experimental: Sunflower leaf discs were placed on agar in 24-well microtiter plates and sprayed with aqueous test solutions prepared from 10,000 DMSO stock solutions. After drying the leaf discs were infested with a Frankliniella population of mixed ages. The samples were assessed for mortality 7 days after infestation.

[7] = system: Spodoptera littoralis (Egyptian Cotton Leaf Worm); test: Spodoptera littoralis (Egyptian Cotton Leaf Worm) systemic lettuce test; details: 144 h, test rate of 12.5 ppm, compound in agar taken up by lettuce roots, eggs, 6 days after infestation, read-out: effect in at least one of the three categories (mortality, anti-feeding, or growth inhibition)
Excerpt: Test compounds were applied by pipette from 10,000 ppm DMSO stock solutions into 24-well plates and mixed with agar. Lettuce seeds were placed onto the agar and the multi well plate was closed by another plate which contained also agar. After 7 days the compound was absorbed by the roots and the lettuce grew into the lid plate. The lettuce leaves were then cut off into the lid plate. Spodoptera eggs were pipetted through a plastic stencil onto a humid gel blotting paper and the lid plate was closed with it. The samples were assessed for mortality, anti-feedant effect and growth inhibition in comparison to untreated samples 6 days after infestation.

[8] = system: Bemisia tabaci (Cotton White Fly); test: Bemisia tabaci (Cotton White Fly): Feeding/Contact Activity; details: foliar, 144 h, application rate of 200 ppm, cotton leaf discs sprayed, adult white flies, 6 days after incubation
Experimental: Cotton leaf discs were placed on agar in 24-well microtiter plates and sprayed with aqueous test solutions prepared from 10,000 ppm DMSO stock solutions. After drying the leaf discs were infested with adult white flies. The samples were checked for mortality 6 days after incubation.

CCS(=O)(=O)c1cc(C2(C#N)CC2)cnc1-c1nc2cc(C(F)(F)F)nnc2n1C [Example H-1, 1-[5-Ethylsulfonyl-6-[7-methyl-3-(trifluoromethyl)imidazo[4,5-c]pyridazin-6-yl]-3-pyridyl]cyclopropanecarbonitrile]
≥ 80%: percent effect (mortality or growth inhibition) at 200 ppm [1] | percent effect (mortality or growth inhibition) at 200 ppm [2] | mortality at 200 ppm [3] | mortality at 24 ppm [4] | percent effect (mortality or growth inhibition) at 200 ppm [5] | mortality at 200 ppm [6] | percent effect (mortality, anti-feeding or growth inhibition) at 12.5 ppm [7] | mortality at 200 ppm [8]

CCSc1cc(C2(C#N)CC2)cnc1-c1nc2cc(C(F)(F)F)nnc2n1C [Example H-2, 1-[5-ethylsulfanyl-6-[7-methyl-3-(trifluoromethyl)imidazo[4,5-c]pyridazin-6-yl]-3-pyridyl]cyclopropanecarbonitrile]
≥ 80%: percent effect (mortality or growth inhibition) at 200 ppm [1] | percent effect (mortality or growth inhibition) at 200 ppm [2] | percent effect (mortality or growth inhibition) at 200 ppm [5] | mortality at 200 ppm [6]
